From PubChem BioAssay (NCI)
Values joined by “and” are separate entries in the source; they are usually repeats but may differ in a detail not shown here. Equal values may be shown once.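 Cultured in 96-well plates, cells were exposed to test compound for 48 hours across five concentrations. Abbreviation: GI50, concentration required for 50% inhibition of growth. Definition used: TGI = concentration required for complete inhibition of growth.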

Experiments:
Assay in all cases: NCI tumour cell line growth inhibition, 48 h
SN12C renal = test system: SN12C renal
SR leukemia = test system: SR leukemia
TK-10 renal = test system: TK-10 renal
ACHN renal = test system: ACHN renal
A549 NSCLC = test system: A549 NSCLC
CAKI-1 renal = test system: CAKI-1 renal
BT-549 breast = test system: BT-549 breast
SK-MEL-5 melanoma = test system: SK-MEL-5 melanoma
SF-295 CNS = test system: SF-295 CNS
SW-620 colon = test system: SW-620 colon

SMILES	TGI (SN12C renal) [µM]	TGI (SR leukemia) [µM]	TGI (TK-10 renal) [µM]	TGI (ACHN renal) [µM]	TGI (A549 NSCLC) [µM]	TGI (CAKI-1 renal)	TGI (BT-549 breast) [µM]	TGI (SK-MEL-5 melanoma) [µM]	TGI (SF-295 CNS)	TGI (SW-620 colon) [µM]	GI50 (SR leukemia) [µM]	GI50 (ACHN renal) [µM]	GI50 (A549 NSCLC) [µM]	GI50 (SF-295 CNS) [µM]	GI50 (SW-620 colon) [µM]
NCCSC(c1ccccc1)c1ccccc1	> 100	43	31.8	> 100	> 100	67.2 µM	> 100	31.1	35.7 µM	37.9	–	–	–	–	–
Nc1nc(SCCc2ccccc2)nc2nc3c(c(-c4ccccc4)c12)CCCC3	> 100	–	> 100	> 100	> 100	> 100 µM	> 100	–	> 100 µM	> 100	–	–	–	–	–
CCOC(=O)C1=NN(c2ccc(C)cc2)C2=CC(C)=NN(C)C(=S)N21	> 100	> 100	> 100	> 100	> 100	55.1 µM	> 100	> 100	> 100 µM	> 100	–	–	–	–	–
CCOC(=O)C(NC(=O)c1ccco1)(Nc1nc2ccc(OCC)cc2s1)C(F)(F)F (centres undefined)	> 100	88.5	> 100	82.3	> 100	45.8 µM	> 100	47.8	> 100 µM	> 100	–	–	–	–	–
O=C(c1cccs1)N(C(=S)OC12CC3CC(CC(C3)C1)C2)c1ccccc1	89.8	> 100	> 100	> 100	> 100	> 100 µM	> 100	55.8	> 100 µM	> 100	–	–	–	–	–
COc1ccc2c(c1)[nH]c1c(/C=C/c3ccccc3)nccc12	30.2	> 100	39.7	28.4	37.2	52 µM	29.9	36.6	24.2 µM	91.9	–	–	–	–	–
CC12CC3OC(=O)C1COC14OC5(C2C1=O)C(O)(CCC1C4CC(O)C2(O)CC=CC(=O)C12C)C(=O)OC35C (centres undefined)	> 100	–	> 100	> 100	> 100	> 100 µM	> 100	> 100	> 100 µM	> 100	–	–	–	–	–
CC1CC[C@@]2(OC1)OC1C[C@H]3[C@@H]4CC=C5CC(OC6OC(CO)C(OC7OC(CO)C(O)C(OC8OCC(O)C(O)C8O)C7OC7OC(CO)C(O)C(O)C7O)C(O)C6O)CCC5(C)[C@H]4CCC3(C)C1[C@@H]2C (some centres undefined)	8.27	17.7	20.2	10.6	8.01	10.3 µM	9.24	8.43	21.2 µM	8.3	–	–	–	–	–
Cc1ccccc1C(=O)N/N=C/c1ccc(Sc2nccn2C)c([N+](=O)[O-])c1	> 100	> 100	> 100	> 100	> 100	> 100 µM	> 100	> 100	> 100 µM	> 100	–	–	–	–	–
[N-]=[N+]=CC(=O)c1ccccc1C#CCCc1ccccc1	> 100	> 100	> 100	68.8	> 100	–	–	32.2	> 100 µM	> 100	–	–	–	–	–
Cc1c(N2C(=O)CS(=O)(=O)C2c2cccc(Oc3ccccc3)c2)c(=O)n(-c2ccccc2)n1C (centres undefined)	> 100	–	47.7	> 100	> 100	> 100 µM	> 100	> 100	> 100 µM	> 100	–	–	–	–	–
O=C(C[n+]1ccc2ccccc2c1)c1ccc2ccc3ccccc3c2c1	14.7	2.15	8.74	14.8	16.6	20.1 µM	24	14.4	16.4 µM	13.1	–	–	–	–	–
COc1nc(C#CC2(O)CCCCC2)nc(OC)n1	26.6	17.4	–	21.9	28.1	15.9 µM	28	20.2	60.4 µM	24.1	–	–	–	–	–
CCCCCCCCC/C=C/C=C/C(=O)NCC(=O)NC1C(O)C(O)C(Nc2ncnc3nc[nH]c23)OC1C(O)CO (centres undefined)	0.913	–	1.71	–	–	0.0105 µM and 0.0747 µM	–	0.12	1.08 µM and 8.98 µM	0.112	0.765	0.0144	0.00608	0.0441	0.00284
CNC(=O)OCc1c(CO)nc(SC)n1C	> 100	–	–	–	> 100	> 100 µM	–	> 100	> 100 µM	> 100	–	–	–	–	–
CC(=O)C1=C(C)N(c2ccc(C)cc2)C2(O)C=CC(=O)C3C(=O)N(c4ccccc4)C(=O)C132 (centres undefined)	34.2	23.7	40.3	40.4	> 100	45.4 µM	39.8	34	43.7 µM	22.7	–	–	–	–	–
CCC1CN(C(=O)c2ccccc2)C(Cc2c[nH]c3ccccc23)C(=O)C1CC(=O)OC (centres undefined)	> 100	> 100	> 100	> 100	–	> 100 µM	> 100	> 100	> 100 µM	> 100	–	–	–	–	–
